Results published in patent US20210345613A1, “HERBICIDAL PYRIMIDINE COMPOUNDS” (BASF SE, priority 2016, published 2021).

Columns and labels:
Assay type in all cases: in vivo
Avena fatua = experiment: greenhouse herbicidal test, post-emergence treatment; conditions: post-emergence method, application rate 2000 g/ha, scale from 0 to 100, test period 2 to 4 weeks
Description: (§1) The seeds of the test plants were sown separately for each species. For the post-emergence treatment, the test plants were first grown to a height of 3 to 15 cm, depending on the plant habit, and only then treated with the active ingredients which had been suspended or emulsified in water. For this purpose, the test plants were either sown directly and grown in the same containers, or they were first grown separately as seedlings and transplanted into the test containers a few days prior to treatment. Depending on the species, the plants were kept at 10-25° C. or 20-35° C., respectively. The test period extended over 2 to 4 weeks. During this time, the plants were tended, and their response to the individual treatments was evaluated. Evaluation was carried out using a scale from 0 to 100. 100 means no emergence of the plants, or complete destruction of at least the aerial moieties, and 0 means no damage, or normal course of growth. A good herbicidal activity is given at values of at least 70 and a very good herbicidal activity is given at values of at least 85. The plants used in the greenhouse experiments were of the following species: [table]

Alopecurus myosuroides = experiment: as above; conditions: post-emergence method, application rate 2000 g/ha, scale from 0 to 100, test period 2 to 4 weeks
Description: as §1

Amaranthus retroflexus = experiment: as above; conditions: post-emergence method, application rate 2000 g/ha, scale from 0 to 100, test period 2 to 4 weeks
Description: as §1

Apera spica-venti = experiment: greenhouse herbicidal test, pre-emergence treatment; conditions: pre-emergence method, application rate 2000 g/ha, scale from 0 to 100, test period 2 to 4 weeks
Description: (§2) The seeds of the test plants were sown separately for each species. For the pre-emergence treatment, the active ingredients, which had been suspended or emulsified in water, were applied directly after sowing by means of finely distributing nozzles. The containers were irrigated gently to promote germination and growth and subsequently covered with transparent plastic hoods until the plants had rooted. This cover caused uniform germination of the test plants, unless this had been impaired by the active ingredients. Depending on the species, the plants were kept at 10-25° C. or 20-35° C., respectively. The test period extended over 2 to 4 weeks. During this time, the plants were tended, and their response to the individual treatments was evaluated. Evaluation was carried out using a scale from 0 to 100. 100 means no emergence of the plants, or complete destruction of at least the aerial moieties, and 0 means no damage, or normal course of growth. A good herbicidal activity is given at values of at least 70 and a very good herbicidal activity is given at values of at least 85. The plants used in the greenhouse experiments were of the following species: [table]

Echinocloa crus-galli [1] = experiment: as above; conditions: pre-emergence method, application rate 2000 g/ha, scale from 0 to 100, test period 2 to 4 weeks
Description: as §2

Matricaria inodora = experiment: greenhouse herbicidal test, post-emergence treatment; conditions: post-emergence method, application rate 2000 g/ha, scale from 0 to 100, test period 2 to 4 weeks
Description: as §1

Setaria viridis = experiment: as above; conditions: post-emergence method, application rate 2000 g/ha, scale from 0 to 100, test period 2 to 4 weeks
Description: as §1

Echinocloa crus-galli [2] = experiment: as above; conditions: post-emergence method, application rate 2000 g/ha, scale from 0 to 100, test period 2 to 4 weeks
Description: as §1

ABUTH = experiment: as above; conditions: post-emergence method, application rate 2000 g/ha, scale from 0 to 100, test period 2 to 4 weeks
Description: as §1, with “85.” for “85. The plants used in the greenhouse experiments were of the following species: [table]”

| SMILES | herbicidal activity against AVEFA (Avena fatua) | herbicidal activity against ALOMY (Alopecurus myosuroides) | herbicidal activity against AMARE (Amaranthus retroflexus) | herbicidal activity against APESV (Apera spica-venti) | herbicidal activity against ECHCG (Echinocloa crus-galli [1]) | herbicidal activity against MATIN (Matricaria inodora) | herbicidal activity against SETVI (Setaria viridis) | herbicidal activity against ECHCG (Echinocloa crus-galli [2]) | herbicidal activity against ABUTH (ABUTH) |
| --- | --- | --- | --- | --- | --- | --- | --- | --- | --- |
| Cc1occc1-c1nc(C2CC2)ncc1-c1ncccc1Cl [Ex.34] | good (A good herbicidal activity is given at values of at least 70) | very good (a very good herbicidal activity is given at values of at least 85) | very good (a very good herbicidal activity is given at values of at least 85) | very good (a very good herbicidal activity is given at values of at least 85) | very good (a very good herbicidal activity is given at values of at least 85) | – | – | – | – |
| Cc1nc(C2CC2)ncc1-c1ncccc1Cl [Ex.01] | – | – | very good (a very good herbicidal activity is given at values of at least 85) | – | – | very good (a very good herbicidal activity is given at values of at least 85) | – | – | – |
| Clc1cccnc1-c1cnc(C2CC2)nc1C=Cc1cccs1 [Ex.35] | good (A good herbicidal activity is given at values of at least 70) | very good (a very good herbicidal activity is given at values of at least 85) | – | very good (a very good herbicidal activity is given at values of at least 85) | very good (a very good herbicidal activity is given at values of at least 85) | – | very good (a very good herbicidal activity is given at values of at least 85) | – | – |
| OC(Cc1nc(C2CC2)ncc1-c1ncccc1Cl)c1cccs1 (centres unmarked) [Ex.33] | – | – | very good (a very good herbicidal activity is given at values of at least 85) | – | – | – | – | good (A good herbicidal activity is given at values of at least 70) | – |
| CCOC(=O)C(C)(C)c1nc(C2CC2)ncc1-c1ncccc1Cl [Ex.22] | – | – | very good (a very good herbicidal activity is given at values of at least 85) | – | – | – | – | – | – |
| CC(O)Cc1nc(C2CC2)ncc1-c1ncccc1Cl (centres unmarked) [Ex.29] | – | – | – | very good (a very good herbicidal activity is given at values of at least 85) | very good (a very good herbicidal activity is given at values of at least 85) | – | very good (a very good herbicidal activity is given at values of at least 85) | – | good (A good herbicidal activity is given at values of at least 70) |
| CCC(=O)Cc1nc(C2CC2)ncc1-c1ncccc1Cl [Ex.44] | – | very good (a very good herbicidal activity is given at values of at least 85) | good (A good herbicidal activity is given at values of at least 70) | very good (a very good herbicidal activity is given at values of at least 85) | very good (a very good herbicidal activity is given at values of at least 85) | – | – | – | – |
| CCOC(=O)C(C)c1nc(C2CC2)ncc1-c1ncccc1Cl (centres unmarked) [Ex.21] | – | – | good (A good herbicidal activity is given at values of at least 70) | good (A good herbicidal activity is given at values of at least 70) | – | – | – | very good (a very good herbicidal activity is given at values of at least 85) | – |
| Clc1cccnc1-c1cnc(C2CC2)nc1C=Cc1ccccc1 [Ex.37] | – | – | very good (a very good herbicidal activity is given at values of at least 85) | – | – | – | very good (a very good herbicidal activity is given at values of at least 85) | – | very good (a very good herbicidal activity is given at values of at least 85) |
